Experiments:
[1] = biological target: T1, human recombinant adrenergic α1D receptor (Homo sapiens, UniProt P25100); assay: Radioligand binding, adrenergic α1D receptor ([3H]Prazosin); conditions: 0.1 μM compound; HEK-293 cells; 0.6 nM [3H]Prazosin; read-out: Percentage inhibition of ligand binding, Adrenergic α1D
T1 construct: expressed in transfected cells; host or cells: HEK-293
T1 sequence (P25100 1-572): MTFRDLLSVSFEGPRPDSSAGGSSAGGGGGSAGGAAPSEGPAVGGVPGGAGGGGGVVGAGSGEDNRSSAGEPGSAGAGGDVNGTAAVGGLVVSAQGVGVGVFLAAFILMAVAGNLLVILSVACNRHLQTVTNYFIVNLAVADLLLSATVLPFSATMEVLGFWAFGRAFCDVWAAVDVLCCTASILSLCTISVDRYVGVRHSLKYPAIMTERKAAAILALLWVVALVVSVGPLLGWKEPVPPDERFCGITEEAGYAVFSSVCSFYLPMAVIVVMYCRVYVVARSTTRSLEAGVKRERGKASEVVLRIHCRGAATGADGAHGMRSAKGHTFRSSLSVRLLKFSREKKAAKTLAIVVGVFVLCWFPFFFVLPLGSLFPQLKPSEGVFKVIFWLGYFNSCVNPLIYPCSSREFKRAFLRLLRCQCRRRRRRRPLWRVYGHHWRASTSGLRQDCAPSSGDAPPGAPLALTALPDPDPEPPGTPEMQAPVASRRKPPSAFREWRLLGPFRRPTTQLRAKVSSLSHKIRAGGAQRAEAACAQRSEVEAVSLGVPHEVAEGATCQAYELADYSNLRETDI
Method: Compounds were incubated with 0.6 nM [3H]Prazosin for 60 min at 25° C. Non-specific binding was estimated in the presence of 10 μM phentolamine. Receptor proteins were filtered and washed, the filters were then counted to determine [3H]Prazosin specifically bound. Compounds were screened at 1 μM or lower, using 1% DMSO as vehicle. Biochemical assay results are presented as the percent inhibition of specific binding in Table 2.

[2] = biological target: T2, rat adrenergic α1B receptor (Rattus norvegicus, UniProt P15823); assay: Radioligand binding, adrenergic α1B receptor ([3H]Prazosin); conditions: Wistar rat liver
T2 construct: rat adrenergic α1B receptor obtained from Wistar Rat liver; from tissue; host or cells: Wistar rat liver
T2 sequence (P15823 1-515): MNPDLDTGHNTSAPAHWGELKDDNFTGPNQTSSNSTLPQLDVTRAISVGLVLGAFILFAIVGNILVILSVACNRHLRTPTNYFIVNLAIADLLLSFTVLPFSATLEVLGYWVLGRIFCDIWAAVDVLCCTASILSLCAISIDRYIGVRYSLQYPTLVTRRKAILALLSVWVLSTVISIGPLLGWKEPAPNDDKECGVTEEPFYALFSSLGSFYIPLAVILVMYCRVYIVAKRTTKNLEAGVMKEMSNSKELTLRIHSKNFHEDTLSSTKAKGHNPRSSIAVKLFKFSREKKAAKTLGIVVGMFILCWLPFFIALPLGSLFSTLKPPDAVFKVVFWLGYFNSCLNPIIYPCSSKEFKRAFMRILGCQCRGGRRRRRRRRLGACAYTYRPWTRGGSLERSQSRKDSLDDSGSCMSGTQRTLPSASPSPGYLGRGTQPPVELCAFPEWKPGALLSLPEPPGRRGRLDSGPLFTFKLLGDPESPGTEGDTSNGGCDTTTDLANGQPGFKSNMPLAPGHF
How it was run: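 Wistar rat liver α1B receptor preparation incubated with 0.25 nM [3H]prazosin and compound for 60 min at 25° C in 50 mM Tris-HCl pH 7.4, 0.5 mM EDTA; nonspecific binding defined with 10 μM phentolamine.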

[3] = biological target: T3, human recombinant adrenergic α2A receptor (Homo sapiens, UniProt P08913); assay: Radioligand binding, adrenergic α2A receptor ([3H]MK-912); conditions: Sf9 cells, 1 nM [3H]MK-912; for inhibition at 0.03 µM / inhibition at 0.1 µM: read-out: Percentage inhibition of ligand binding, Adrenergic α2A
T3 construct: expressed in transfected cells; host or cells: insect Sf9 cells
T3 sequence (P08913 1-465): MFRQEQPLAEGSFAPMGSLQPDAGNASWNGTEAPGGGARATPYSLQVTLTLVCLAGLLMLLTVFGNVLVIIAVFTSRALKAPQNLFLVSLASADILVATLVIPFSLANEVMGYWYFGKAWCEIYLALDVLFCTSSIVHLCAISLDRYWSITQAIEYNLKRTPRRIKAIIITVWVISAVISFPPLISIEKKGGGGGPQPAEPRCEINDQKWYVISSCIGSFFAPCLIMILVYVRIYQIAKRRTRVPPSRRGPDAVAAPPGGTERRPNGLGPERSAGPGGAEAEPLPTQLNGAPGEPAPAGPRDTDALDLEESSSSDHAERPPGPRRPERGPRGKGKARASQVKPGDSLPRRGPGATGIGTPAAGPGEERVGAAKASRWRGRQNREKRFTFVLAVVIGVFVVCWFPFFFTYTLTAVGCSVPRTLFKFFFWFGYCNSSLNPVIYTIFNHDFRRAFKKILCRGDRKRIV
How it was run: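 Percent inhibition of specific [3H]MK-912 (1 nM) binding measured by filtration counting, compounds tested at ≤1 μM in 1% DMSO. Receptor: human α2A from Sf9 cells; incubation 60 min, 25 °C, pH 7.4; 10 μM WB-4101 defined nonspecific binding.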

[4] = 0.1 μM compound, read-out: Percentage inhibition of ligand binding, Adrenergic α1B

SMILES	inhibition at 0.1 µM [1] [%]	inhibition at 0.03 µM ([2]; 0.03 μM compound, read-out: Percentage inhibition of ligand binding, Adrenergic α1B) [%]	Percentage inhibition of ligand binding, Adrenergic α1B ([2]; 0.1 μM compound) [%]	Percentage inhibition of ligand binding, Adrenergic α2A ([3]; 0.03 μM compound) [%]	inhibition at 0.03 µM ([3]; 0.03 μM compound) [%]	Percentage inhibition of ligand binding, Adrenergic α2A ([3]; 0.1 μM compound) [%]	inhibition at 0.1 µM ([3]; 0.1 μM compound) [%]	inhibition at 0.1 µM [2, 4] [%]
Cc1ccc2c(c1)c1c(n2-c2cscc2-c2ccc3c(ccn3C)c2)CCN(C)C1 [Compound 33]	69	46	73	96	87	96	92	–
COc1ccc(-c2cscc2-n2c3c(c4cc(C)ccc42)CN(C)CC3)cc1 [Compound 37]	79	–	–	–	81	–	88	77
Cc1csc(-c2cscc2-n2c3c(c4cc(C)ccc42)CN(C)CC3)c1 [Compound 50]	51	–	–	–	82	–	88	42
Cc1ccc2c(c1)c1c(n2-c2cscc2-c2ccc3cnccc3c2)CCN(C)C1 [Compound No. 68]	68	–	–	–	76	–	86	61
Cc1ccc2c(c1)c1c(n2-c2cscc2-c2ccc(S(C)(=O)=O)cc2)CCN(C)C1 [Compound No. 76]	73	–	–	–	44	68	–	68

Continued, values first:

inhibition at 0.1 µM [1] [%]	inhibition at 0.03 µM ([2]; 0.03 μM compound, read-out: Percentage inhibition of ligand binding, Adrenergic α1B) [%]	Percentage inhibition of ligand binding, Adrenergic α1B ([2]; 0.1 μM compound) [%]	Percentage inhibition of ligand binding, Adrenergic α2A ([3]; 0.03 μM compound) [%]	inhibition at 0.03 µM ([3]; 0.03 μM compound) [%]	Percentage inhibition of ligand binding, Adrenergic α2A ([3]; 0.1 μM compound) [%]	inhibition at 0.1 µM ([3]; 0.1 μM compound) [%]	inhibition at 0.1 µM [2, 4] [%]	SMILES
53	–	–	–	82	–	90	51	Cc1ccc2c(c1)c1c(n2-c2cscc2-c2ccc(C)s2)CCN(C)C1 [Compound No. 79]
62	–	–	–	80	–	89	36	Cc1ccc2c(c1)c1c(n2-c2ccccc2-c2ccc3c(ccn3C)c2)CCN(C)C1 [Compound No. 85, 2,8-dimethyl-5-(2-(1-methyl-1H-indol-5-yl)phenyl)-2,3,4,5-tetrahydro-1H-pyrido[4,3-b]indole]
64	–	–	–	74	–	84	79	Cc1ccc2c(c1)c1c(n2-c2ccccc2-c2cccn2C)CCN(C)C1 [Compound No. 100, 2,8-dimethyl-5-(2-(1-methyl-1H-pyrrol-2-yl)phenyl)-2,3,4,5-tetrahydro-1H-pyrido[4,3-b]indole]
